Read-outs that look alike come from different tables or passages of the source.
Experiments:
[1] = test system: M. tuberculosis within human monocyte-derived macrophages (MDM); format: cell-based
P. aeruginosa biofilm = test: Biofilm formation of GFP-labeled P. aeruginosa in continuous culture flow cells; format: cell-based
Erdman M. tuberculosis [2] = format: cell-based; conditions: liquid media
[3] = test system: intraphagosomal M. tuberculosis; test: 59Fe acquisition by M. tuberculosis within macrophage phagosomes; format: cell-based; conditions: 10 μM Ga(NO3)3; 59Fe transferrin
Protocol: FIG. 6. Ga-transferrin inhibits Fe acquisition by M. tuberculosis within macrophage phagosomes in a concentration-dependent manner. ^59Fe transferrin (10 μM) was added to M. tuberculosis-containing MDMs in the absence (control) or the presence of the indicated concentrations of Ga-transferrin for 24 h MDMs were lysed, and the lysates were filtered through a 0.22-μm (pore-size) filter. M. tuberculosis-associated radioactivity (expressed in cpm) on the filter was determined. Shown are the cpm values as a function of the Ga concentration added from a representative experiment.
Fe-TF is the major form of extracellular Fe, and transport of exogenously added TF to the M. tuberculosis-containing phagosome of human macrophages (Clemens et al., 1996) has been observed. It was therefore hypothesized that gallium competes with Fe uptake by bacteria dividing within the phagosome. […] This was not due to differences in total MDM ^59Fe.
In two recent preliminary experiments, MDM monolayers were preloaded with either ^59Fe or ^67Ga or both (pulse/chase, 24 h each). Erdman M. tuberculosis was then added. After 48 h, bacteria isolated from the phagosome were assessed for associated iron or gallium. Each metal could be found specifically associated with the bacteria.

[4] = patients with cancer-related hypercalcemia; cited from earlier work
P. aeruginosa [5] = test: P. aeruginosa growth in 1:100 strength TSB medium (A600); conditions: batch culture
Protocol: Effect of gallium on the growth of P. aeruginosa. Bacteria were inoculated in 1:100 strength TSB medium with the indicated concentrations of gallium and grown at 37° C. with shaking. Growth was monitored as the change in A600 over 15 h.

IdeR = IdeR (Mycobacterium tuberculosis, UniProt P9WMH1); test: IdeR DNA binding, gel mobility shift assay with HisE promoter region; parameters: species or system M. tuberculosis; conditions: for IdeR binding to HisE promoter DNA fragment: 200 μM
Sequence of IdeR (P9WMH1 whole entry, the tested form may be a part): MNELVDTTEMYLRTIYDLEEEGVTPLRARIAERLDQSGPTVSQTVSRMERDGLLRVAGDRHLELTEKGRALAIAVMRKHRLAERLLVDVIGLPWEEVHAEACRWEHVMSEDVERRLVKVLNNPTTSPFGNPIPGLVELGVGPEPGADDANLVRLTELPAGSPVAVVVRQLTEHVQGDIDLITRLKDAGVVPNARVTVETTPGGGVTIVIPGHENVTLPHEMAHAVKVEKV
Text: The iron regulatory element, IdeR, regulates the production of catalase, SOD, and siderophores in mycobacteria (Dussurget et al., 1996) in a manner analogous to P. aeruginosa Fur. In order for DNA binding to occur, IdeR must be complexed with a divalent metal such as Fe^2+ or Ni^2+. The effect of Ga(NO3)3 on the binding (gel mobility shift assay) of IdeR was examined using the HisE promoter region from M. tuberculosis that contains a high affinity IdeR binding site (Schmitt et al., 1995). […] A similar lack of binding of Ga^3+ to P. aeruginosa Fur is expected based on these findings.

M. tuberculosis RR [6] = target: T1, M. tuberculosis RR (Mycobacterium tuberculosis, UniProt P9WH71); conditions: Yang et al., 1997; read-out: IC50, RR inhibition; cited from earlier work
T1 sequence (P9WH71 whole entry): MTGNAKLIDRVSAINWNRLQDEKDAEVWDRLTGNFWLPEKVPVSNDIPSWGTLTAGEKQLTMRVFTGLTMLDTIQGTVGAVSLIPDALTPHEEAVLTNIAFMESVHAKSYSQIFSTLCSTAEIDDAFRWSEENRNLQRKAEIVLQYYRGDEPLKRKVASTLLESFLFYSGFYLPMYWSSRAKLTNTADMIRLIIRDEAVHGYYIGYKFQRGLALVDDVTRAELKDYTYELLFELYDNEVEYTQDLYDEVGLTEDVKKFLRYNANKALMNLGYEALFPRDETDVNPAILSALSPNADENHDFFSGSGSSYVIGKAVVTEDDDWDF

Erdman M. tuberculosis [7] = test: 59Fe acquisition by M. tuberculosis in 7H9 medium; format: cell-based; conditions: 500 nM 59Fe-citrate, 6 h
Protocol: FIGS. 4A-4B. […] Erdman M. tuberculosis (2×10^7 ml) was incubated for 6 h in 7H9 medium (without added Fe and OADC) with 500 nM ^59Fe-citrate (FIG. 4A) or ^67Ga-citrate (FIG. 4B) in the absence or presence of the indicated concentrations of cold competing metal. The bacteria were then washed repeatedly, and bacterium-associated ^67Ga or ^59Fe levels were determined. Results are shown as the amount of metal acquired as a function of increasing concentrations of the cold competing metal. Experimental groups were performed in triplicate, and the data shown represent three independent experiments (mean±SEM).

M. tuberculosis RR [8] = target: T1, M. tuberculosis RR; test: Radiolabeled CDP reduction assay for ribonucleotide reductase activity; format: biochemical; conditions: n=2; read-out: concentration that inhibited RR activity by 50%
[9] = test system: P. aeruginosa strain PA01; test: P. aeruginosa growth in iron-supplemented succinate media (A600); format: cell-based; conditions: 100 nM gallium
Protocol: FIG. 7. P. aeruginosa was inoculated to an OD (A600) of about 0.010 into succinate media alone or with FeCl3 supplementation +/− the Ga chelates.
P. aeruginosa growth is dependent on the addition of exogenous Fe (FIG. 7). […] When gallium, either in the form of Ga(NO3)3 or Ga-TF, was added to iron-supplemented succinate media at concentrations ≧1 μM, a gallium concentration-dependent inhibition of P. aeruginosa growth was observed (FIG. 7). […] Similar results were observed under different conditions (see below).

established biofilms = test: Killing of established three-day-old biofilms, viability by propidium iodide; format: cell-based, P. aeruginosa; conditions: 10 μM, 100 μM, 1000 μM; 12, 24, 48, 72 hours
Protocol: FIGS. 10A-10D. Gallium kills established biofilms. Three-day-old biofilms were exposed to gallium in concentrations of 10 μM, 100 μM, and 1000 μM. Biofilm viability was assessed with propidium iodide, and observations were recorded at 12 hours (FIG. 10A), 24 hours (FIG. 10B), 48 hours (FIG. 10C), and 72 hours (FIG. 10D).
Three-day-old biofilms were exposed to gallium in concentrations of 10 μM, 100 μM, and 1000 μM. The biofilm viability was assessed with propidium iodide, and observations were recorded at 12 hours (FIG. 10A), 24 hours (FIG. 10B), 48 hours (FIG. 10C), and 72 hours (FIG. 10D).

[10] = human, in vivo; read-out: peak levels achieved clinically; cited from earlier work
P. aeruginosa [11] = conditions: cited from earlier work

O=[N+]([O-])[O-].[Na+] [NaNO3, reference compound]
effect on mycobacterial growth within macrophages ([1]; nitrate control): no effect

CC(C)(O/N=C(\C(=O)N[C@@H]1C(=O)N2C(C(=O)[O-])=C(C[n+]3ccccc3)CS[C@H]12)c1csc(N)n1)C(=O)O [ceftazidime, reference compound]
effect on P. aeruginosa biofilm development (P. aeruginosa biofilm; sub-inhibitory concentration, 0.25 μg/ml): did not inhibit biofilm development

Ga-TF: gallium chelated by serum transferrin (TF)
inhibiting mycobacterial growth compared with Ga(NO3)3 (Erdman M. tuberculosis [2]): as effective as Ga(NO3)3
inhibiting mycobacterial growth compared with Ga(NO3)3 ([1]; within human macrophages): as effective as Ga(NO3)3

O=[N+]([O-])[O-].O=[N+]([O-])[O-].O=[N+]([O-])[O-].[Ga+3] [Ga(NO3)3, gallium nitrate]
59Fe acquisition by intraphagosomal M. tuberculosis [3]: markedly decreased
effect on P. aeruginosa biofilm formation (P. aeruginosa biofilm; 0.3 μM Ga(NO3)3 (sub-inhibitory), up to 4 days): subsequent steps in biofilm formation were inhibited
tolerability [4]: well tolerated
concentration above which growth rate of P. aeruginosa significantly decreased (P. aeruginosa [5]): exceeded 1 μM

[Ni+2] [Ni^2+, reference compound]
IdeR binding to HisE promoter DNA fragment (IdeR): binding was observed

NC(=O)NO [hydroxyurea]
IC50 (M. tuberculosis RR [6]): 3000 to 5000 µM

[Ga+3] [gallium]
bactericidal activity for M. tuberculosis ([1]; extracellularly and even more so intracellularly in macrophages): bactericidal
competition for M. tuberculosis acquisition of 59Fe (Erdman M. tuberculosis [7]): highly effective in competing
interference with Ni2+ or Fe2+ activation of IdeR binding (IdeR): did not interfere
IdeR binding to HisE promoter DNA fragment (IdeR): did not lead to IdeR binding
IC50 (M. tuberculosis RR [8]): 450 µM
effect on P. aeruginosa growth [9]: did not inhibit growth
killing of established biofilms (established biofilms): kills established biofilms in a time and concentration dependent manner
Cmax [10]: 140 to 700 µM

NC[C@H]1O[C@H](O[C@H]2[C@H](O)[C@@H](O[C@H]3O[C@H](CO)[C@@H](O)[C@H](N)[C@H]3O)[C@H](N)C[C@@H]2N)[C@H](N)C[C@@H]1O [tobramycin]
reduction of biofilm cell counts (P. aeruginosa [11]; levels far in excess of the MIC, biofilm cells): approximately 2 logs
decrease in planktonic cells (P. aeruginosa [11]; same dosage, planktonic cells): > 8 log

— patent US9539367B2, “Gallium inhibits biofilm formation” (priority 2003, dated 2017)
